Reference: the COVID Moonshot data (paper PMC7615835)
Values joined by “and” are separate entries in the source; they are usually repeats but may differ in a detail not shown here. Identical values can stand only once.

What follows are compounds tested against SARS-CoV-2 Main Protease (SARS-CoV-2) (UniProt P0DTD1).

Row | SMILES | IC50
1 | O=C(Cc1cc(Cl)cc(Nc2ccc(Br)cc2O)c1)Nc1cncc2ccccc12 | 3.89 µM
2 | CNC(=O)CN1CC(C)(C(=O)Nc2cncc3cc(Cl)ccc23)c2cc(Cl)ccc2S1(=O)=O (stereo unspecified) | 0.393 µM
3 | COc1ncc(Nc2cc(Cl)cc(CC(=O)Nc3cncc4ccccc34)c2)cc1Br | 1.74 µM
4 | C=CC(=O)N(c1ccc(C(C)(C)C)cc1)[C@H](C(=O)NCCc1cccc(F)c1)c1cccnc1 (stereo in doubt) | 2.86 µM
5 | O=C(Nc1ccc(F)cc1)[C@@H]1CN(C(=O)CCl)CCN1S(=O)(=O)c1ccsc1 (stereo in doubt) | 0.593 µM
6 | N#Cc1cccc(C2CN(C(=O)CCl)Cc3ccccc32)c1 (stereo unspecified) | 1.17 µM
7 | C=CC(=O)N(c1ccc(C(C)(C)C)cc1)C(C(=O)NCCOC)c1cccnc1 (stereo unspecified) | 55.8 µM
8 | Cc1nc(CN2C(=O)C(=O)c3cc(Br)ccc32)cs1 | > 99.5 µM
9 | CN(C)S(=O)(=O)N1Cc2ccc(Cl)cc2C(C(=O)Nc2cnccc2C(F)(F)F)C1 (stereo unspecified) | 28.8 µM
10 | COc1cc(C(=O)N(c2ccc(C(C)(C)C)cc2)C(C(=O)NCCc2cccc(F)c2)c2cccnc2)sn1 (stereo unspecified) | > 99.5 µM
11 | CN1CC(C#N)(CS(=O)(=O)N2Cc3ccc(Cl)cc3C(C(=O)Nc3cncc4ccccc34)C2)C1 (stereo unspecified) | 0.151 µM
12 | COc1ccccc1OCCNC(=O)C1CC(=O)Nc2ccccc21 (stereo unspecified) | > 99.5 µM
13 | CNC(=O)C1(N2Cc3ccc(Cl)cc3C3(CCN(c4cncc5ccc(OCCN(C)C)cc45)C3=O)C2)CC1 (stereo unspecified) | 0.614 µM
14 | Cc1ccc2cncc(NC(=O)Cc3cccc(Cl)c3)c2c1 | 0.537 µM
15 | O=C(Nc1cncc2ccccc12)N(CCC1CCCCC1)c1cccc(Cl)c1 | 0.261 µM
16 | O=C(NCCc1cccc(F)c1)C(c1cccnc1)N(C(=O)c1cocn1)[C@H]1C[C@H](Oc2ccccc2)C1 (stereo partly specified) | > 99.5 µM
17 | O=C(Cc1cc(Cl)cc(N2CCN(c3ncccn3)CC2)c1)Nc1cncc2ccccc12 | 2.52 µM
18 | N#Cc1cc(Cl)ccc1Nc1cc(Cl)cc(CC(=O)Nc2cncc3ccccc23)c1 | 2.23 µM
19 | CC(C)(C)c1ccc(N(C(=O)c2ccns2)C(C(=O)NCCc2cccc(F)c2)c2cccnc2)cc1 (stereo unspecified) | 51.1 µM
20 | CC(NCc1c[nH]c2nccnc12)c1cc(F)ccc1N1CCC(O)CC1 (stereo unspecified) | > 99.5 µM
21 | O=C(Nc1cncc2ccccc12)C1(CNc2c[nH]c(=O)[nH]c2=O)CCOc2cc(Cl)ccc21 (stereo unspecified) | 5.36 µM
22 | CNC(=O)CN1Cc2ccc(Cl)cc2C2(CCN(c3cncc4cccc(Cl)c34)C2=O)C1 (stereo unspecified) | 3.28 µM
23 | Cc1c(Nc2cc(Cl)cc(CC(=O)Nc3cncc4ccccc34)c2)c(=O)n(-c2ccccc2)n1C | 3.41 µM
24 | Cn1c(C(=O)N(c2ccc(C(C)(C)C)cc2)C(C(=O)NCCc2cccc(F)c2)c2cccnc2)c[nH]c1=O (stereo unspecified) | > 99.5 µM
25 | CC(C)(C)c1ccc(N(C(=O)c2ccco2)C(C(=O)NCc2ccccc2)c2cccnc2)cc1 (stereo unspecified) | 4.36 µM
26 | CNC(=O)CN1Cc2ccc(Cl)cc2C2(CCN(c3cncc4ccc(F)cc34)C2=O)C1 (stereo unspecified) | 0.267 µM

Row | SMILES | IC50
27 | O=C(Nc1cncc2cc(CN3CCNCC3)ccc12)C1CCOc2ccc(Cl)cc21 (stereo unspecified) | 1.83 µM
28 | O=C(Nc1cncc2ccccc12)C1(CCC2CC2)CCOc2ccc(Cl)cc21 (stereo unspecified) | 40.7 µM
29 | Cn1ccn2c(CNC(=O)c3ccc4ncsc4c3)nnc2c1=O | > 99.5 µM
30 | CN(C)c1ccc(N(Cc2ccsc2)C(=O)Cn2nnc3ccccc32)cc1 | 1.79 µM
31 | CNC(=O)CN1C[C@]2(CC(=O)N(c3cncc4ccccc34)C2=O)c2cc(Cl)ccc2C1=O (stereo in doubt) | 84.6 µM
32 | CC(C)(C)c1ccc(N(C(=O)c2ccno2)C(C(=O)NCCc2cccc(F)c2)c2cccnc2)cc1 (stereo unspecified) | 1.11 µM
33 | O=C(NCc1ccccc1)[C@H]1CN(C(=O)CCl)CCN1S(=O)(=O)c1ccsc1 (stereo in doubt) | 0.621 µM
34 | O=C(Cc1cccc(Cl)c1)Nc1cnccc1-c1ccccc1 | 40.9 µM
35 | O=C1OC2(CCOc3ccc(Cl)cc32)C(=O)N1c1cncc2ccccc12 (stereo unspecified) | > 99.5 µM
36 | Cc1cc(C(=O)CCl)c(C)n1CC1COc2ccccc2O1 (stereo unspecified) | 2.82 µM
37 | Cc1ccccc1CN(C(=O)c1cocn1)C(C(=O)NCCc1cccc(F)c1)c1cccnc1 (stereo unspecified) | > 99.5 µM
38 | O=C(CN1CC(C(=O)Nc2cncc3cc(F)ccc23)c2cc(Cl)ccc2C1=O)NCC(F)(F)F (stereo unspecified) | 0.879 µM
39 | CC(C)(C)c1ccc(N(C(=O)c2cc(CO)n[nH]2)C(C(=O)NCCc2cccc(F)c2)c2cccnc2)cc1 (stereo unspecified) | 18.8 µM
40 | CC1(C)Nc2ccccc2C1NC(=O)Cc1cccc(Cl)c1 (stereo unspecified) | > 99.5 µM
41 | O=C(NCCc1cccc(F)c1)C(c1cccnc1)N(C(=O)c1cnc[nH]1)c1ccc2c(c1)CCCS2(=O)=O (stereo unspecified) | > 99 µM
42 | NC(=O)C1Cc2ccccc2CN1CC(=O)N1CCN(c2ncccn2)CC1 (stereo unspecified) | > 99.5 µM
43 | O=C(Cc1cc(Cl)cc(Nc2ccccc2)c1)Nc1cncc2ccccc12 | > 9.95 µM
44 | Cn1c(NC(=O)Cc2csc3nccn23)nc2ccc(F)cc21 | > 99.5 µM
45 | COC(=O)/C=C/C(=O)N(C(=O)[C@H]1CCOc2ccc(Cl)cc21)c1cncc2ccccc12 (stereo in doubt) | 4.36 µM
46 | Cc1nn(C)c2nc(Cl)cc(NNC(=O)c3ccnc4[nH]nnc34)c12 | > 99.5 µM
47 | O=C(CCl)N1CCC(c2nc(-c3cccnc3)nc3ccccc23)CC1 | 18.2 µM
48 | O=C(Nc1ccccc1)[C@@H](c1ccccc1)N1Cc2ccccc2C1=O (stereo in doubt) | > 99.5 µM
49 | Cc1nc(C)c(S(=O)(=O)NCC2CCCC3CC23)s1 (stereo unspecified) | > 99.5 µM
50 | Cc1ccncc1C(C(=O)NCCc1cccc(F)c1)N(C(=O)c1cocn1)c1ccc(C(C)(C)C)cc1 (stereo unspecified) | 0.653 µM
51 | O=C(Cc1ccc(C(F)(F)F)cc1)Nc1cncc2ccccc12 | 24.8 µM
52 | O=C(c1cc(=O)[nH]c2ccccc12)N1CCN(Cc2cccc(Cl)c2)CC1 | 4.57 µM

Row | SMILES | IC50
53 | O=C(CN1CC(C(=O)Nc2cncc3ccccc23)c2cc(Cl)ccc2C1=O)NCC1CC1 (stereo unspecified) | 0.0726 µM and 0.122 µM
54 | CCOc1ccc(N(C(=O)c2cnc[nH]2)C(C(=O)NCCc2cccc(F)c2)c2cccnc2)cn1 (stereo unspecified) | > 99 µM
55 | COc1c(C(=O)N(c2ccc(C(C)(C)C)cc2)C(C(=O)NCCc2cccc(F)c2)c2cccnc2)[nH]c(=O)[nH]c1=O (stereo unspecified) | > 99.5 µM
56 | Cc1nc(-c2cccc(NCc3ccccc3C)c2)n[nH]1 | > 99.5 µM
57 | Cc1ccncc1CC(=O)Nc1cccc(Cl)c1 | 29.9 µM
58 | O=C(Cc1cc(Cl)cc(N2CCC(Cc3ccccc3)CC2)c1)Nc1cncc2ccccc12 | 3.35 µM
59 | Cn1ncc(NC(=O)C2CCOc3ccc(Cl)cc32)c1C(F)F (stereo unspecified) | > 99.5 µM
60 | O=C(Cc1cc(Cl)cc(NCc2ccc(-c3ccccc3)cc2)c1)Nc1cncc2ccccc12 | 1.53 µM
61 | Cc1cn2c(CNC(=O)c3cnn4ccccc34)c(C)nc2s1 | > 99.5 µM
62 | COc1cc(CNc2cc(Cl)cc(CC(=O)Nc3cncc4ccccc34)c2)cc(OC)c1 | 2.87 µM
63 | Cc1csc2ncc(C(=O)Nc3cccc4ncccc34)c(=O)n12 | > 99.5 µM
64 | O=C(NNc1cc(O)nc2ncccc12)c1ccnc2ccccc12 | > 99.5 µM
65 | CN(Cc1cccc([N+](=O)[O-])c1)c1cc(Cl)cc(CC(=O)Nc2cncc3ccccc23)c1 | 1.53 µM
66 | Cc1cccc(CN2CCN(c3nc4ccccc4nc3C)CC2)c1 | > 99.5 µM
67 | O=C(Cc1cc(Cl)cc(Nc2ccc(-n3cccn3)cc2)c1)Nc1cncc2ccccc12 | 2.12 µM
68 | O=C(Cc1c[nH]c2cc(Cl)ccc12)Nc1cccc2[nH]c(=O)[nH]c12 | > 99.5 µM
69 | CN(C)c1ccc(N(Cc2ccccc2)C(=O)Cn2nnc3ccccc32)cc1 | 5.05 µM
70 | CC(C)(C)c1ccc(N(C(=O)c2c[nH]c(=O)[nH]2)C(C(=O)NCCc2cccc(F)c2)c2cccnc2)cc1 (stereo unspecified) | 15.9 µM
71 | Cc1ccncc1NC(=O)C(C)(C)c1cccc(Cl)c1 | 95.8 µM and 98.1 µM
72 | O=C(Nc1ccc2nncn2c1)c1ccc2scnc2c1 | > 99.5 µM
73 | COc1cccc(N2CCN(C(=O)c3cc(=O)[nH]c4ccccc34)CC2)c1 | 7.55 µM
74 | O=C(NCCc1cccc(F)c1)C(c1cccnc1)N(C(=O)c1cocn1)c1ccc2nc(C(F)(F)F)[nH]c2c1 (stereo unspecified) | 77.6 µM
75 | O=C(Cc1ccncc1Cl)Nc1cncc2ccccc12 | 52.6 µM
76 | COCc1ccccc1CNS(=O)(=O)c1c(C)sc(C)c1C | > 99.5 µM
77 | O=C(Cc1cc(Cl)cc(Nc2cccnc2Br)c1)Nc1cncc2ccccc12 | 2.08 µM
78 | O=C(NC(c1ccccc1)c1ccccc1)[C@@H]1CN(C(=O)CCl)CCN1S(=O)(=O)c1ccsc1 (stereo in doubt) | 0.635 µM

Row | SMILES | IC50
79 | COc1ccc(N(Cc2cccc(Cl)c2)C(=O)Cn2nnc3ccccc32)cc1 | 1.14 µM
80 | Cc1c(C(=O)CCl)c2ccccn2c1C(=O)c1ccc(F)cc1 | 0.719 µM
81 | O=C(Cc1cccc(Cl)c1)Nc1nnn[nH]1 | 45.3 µM
82 | CNC(=O)N1CCc2ccc(Cl)cc2C1C(=O)Nc1cncc2ccccc12 (stereo unspecified) | 2.47 µM
83 | C[C@]1(C(=O)Nc2cncc3ccccc23)CCNc2cc(Cl)c(Cl)cc21 (stereo in doubt) | 97.7 µM
84 | O=C(Cc1cccc(Cl)c1)NC1CCCNC1=O (stereo unspecified) | > 99.5 µM
85 | Cc1cn2nc(NCc3ccc4ncccc4c3)sc2n1 | > 99.5 µM
86 | Cc1ccc2c(NC(=O)Cc3cccc(Cl)c3)cncc2c1 | 1.24 µM
87 | O=C1CC(NC(=O)Cc2cccc(Cl)c2)C(=O)N1 (stereo unspecified) | > 99.5 µM
88 | Cc1ccc(NC2=C(c3ccccc3)C(=O)N(Cc3cccnc3)C2=O)c(C)c1 | > 99.5 µM
89 | Cc1ccncc1NC(=O)Cc1cc(Cl)cc(OCc2cc(-c3ccc(Cl)cc3)no2)c1 | > 99.5 µM
90 | O=C(Cc1cc(Cl)cc(Nc2ccc(Cl)c(Cl)c2F)c1)Nc1cncc2ccccc12 | 2.26 µM
91 | Cc1nnn(-c2ccc(N(C(=O)c3cocn3)C(C(=O)NCCc3cccc(F)c3)c3cccnc3)cc2)n1 (stereo unspecified) | 33.2 µM
92 | CN(C)S(=O)(=O)c1cccc(C(=O)Nc2c(-c3ccccc3)nc3sccn23)c1 | 0.975 µM
93 | O=C(Cc1cc(Cl)cc(-c2nnn[nH]2)c1)Nc1cncc2ccccc12 | 21.4 µM
94 | C=CC(=O)N(c1ccc(C2(C)CC2)cc1)C(C(=O)Nc1cccc(CC)c1)c1cccnc1 (stereo unspecified) | > 99 µM
95 | O=C(Cc1cc(Cl)cc(Nc2ccc(-c3ccccc3)cc2)c1)Nc1cncc2ccccc12 | 2.06 µM
96 | O=C(Nc1cc[nH]c(=O)c1)C1CCOc2ccc(Cl)cc21 (stereo unspecified) | > 99.5 µM
97 | CC(=O)N1CCN(CC(=O)Nc2cnccc2-c2ccccc2)CC1 | > 99.5 µM
98 | CN(C)C(=O)CN1CCc2ccc(Cl)cc2C1C(=O)Nc1cncc2ccccc12 (stereo unspecified) | 1.54 µM
99 | Cc1sc(Nc2cc(Cl)cc(CC(=O)Nc3cncc4ccccc34)c2)nc1-c1ccc(Cl)cc1 | 2.82 µM
100 | CC(C)C[C@@H]1CN(C(=O)CCl)CCN1Cc1cccc(Cl)c1 (stereo in doubt) | 0.784 µM
101 | O=C(Cc1cc(Cl)cc(-n2c(C3CCNCC3)nc3ccccc32)c1)Nc1cncc2ccccc12 | 2.24 µM
